Experimental data reported in paper PMC5218480 (PLoS ONE, 2017).

Tested on: MV-4-11 cells
Assay: Gene expression microarray analysis (Affymetrix PrimeView) and GSEA
Format: cell-based, human
Parameters: RFU PODN (11730768_x_at) / Fold change /veh PODN (11730768_x_at) / RFU LINC00158 (11744669_a_at) / Fold change /veh LINC00158 (11744669_a_at) / RFU DUSP10 (11751237_a_at) / Fold change /veh DUSP10 (11751237_a_at) / RFU ID3 (11757404_x_at) / Fold change /veh ID3 (11757404_x_at) / RFU PLEKHG5 (11737974_s_at) / Fold change /veh PLEKHG5 (11737974_s_at) / RFU LRRC4B (11730491_at) / Fold change /veh LRRC4B (11730491_at) / RFU GIMAP4 (11747438_a_at) / Fold change /veh GIMAP4 (11747438_a_at) / RFU KRT8 (11758183_x_at) / Fold change /veh KRT8 (11758183_x_at) / RFU CNN1 (11734310_a_at) / Fold change /veh CNN1 (11734310_a_at) / RFU VPS37D (11726825_at) / Fold change /veh VPS37D (11726825_at) / RFU C10orf10 (11716522_x_at) / Fold change /veh C10orf10 (11716522_x_at) / RFU KIR2DL2 /// KIR2DL4 /// KIR2DL5A /// KIR2DL5B /// KIR2DS1 /// KIR2DS2 /// KIR2DS3 /// KIR2DS4 /// KIR3DL3 /// KIR3DL3 /// KIR3DS1 (11738374_at) / Fold change /veh KIR2DL2 /// KIR2DL4 /// KIR2DL5A /// KIR2DL5B /// KIR2DS1 /// KIR2DS2 /// KIR2DS3 /// KIR2DS4 /// KIR3DL3 /// KIR3DL3 /// KIR3DS1 (11738374_at) / RFU C1QL1 (11718748_at) / Fold change /veh C1QL1 (11718748_at) / RFU TMPRSS4 (11747572_a_at) / Fold change /veh TMPRSS4 (11747572_a_at) / RFU HAMP (11756126_x_at) / Fold change /veh HAMP (11756126_x_at) / RFU RNFT2 (11725882_a_at) / Fold change /veh RNFT2 (11725882_a_at) / RFU NR4A2 (11747474_a_at) / Fold change /veh NR4A2 (11747474_a_at) / RFU ABCC12 (11746883_a_at) / Fold change /veh ABCC12 (11746883_a_at) / RFU TMEM136 (11760407_x_at) / Fold change /veh TMEM136 (11760407_x_at) / RFU CLDN22 /// WWC2 (11732394_at) / Fold change /veh CLDN22 /// WWC2 (11732394_at) / RFU HLA-DPB1 (11760878_x_at) / Fold change /veh HLA-DPB1 (11760878_x_at) / RFU SPINT1 (11716480_a_at) / Fold change /veh SPINT1 (11716480_a_at) / RFU GAP43 (11754022_s_at) / Fold change /veh GAP43 (11754022_s_at) / RFU A4GNT (11735810_at) / Fold change /veh A4GNT (11735810_at) / RFU PRB3 (11715151_x_at) / Fold change /veh PRB3 (11715151_x_at) / RFU TUBB4B (11761932_at) / Fold change /veh TUBB4B (11761932_at) / RFU CAPN14 (11732068_a_at) / Fold change /veh CAPN14 (11732068_a_at) / RFU TMCC2 (11721928_a_at) / Fold change /veh TMCC2 (11721928_a_at) / RFU IRGQ (11745062_a_at) / Fold change /veh IRGQ (11745062_a_at) / RFU FAM174B (11720279_a_at) / Fold change /veh FAM174B (11720279_a_at) / RFU TMPRSS4 (11748680_a_at) / Fold change /veh TMPRSS4 (11748680_a_at) / RFU FAM212B (11763350_a_at) / Fold change /veh FAM212B (11763350_a_at) / RFU PLEKHG5 (11743358_a_at) / Fold change /veh PLEKHG5 (11743358_a_at) / RFU ZSCAN30 (11745921_a_at) / Fold change /veh ZSCAN30 (11745921_a_at) / RFU CMKLR1 (11741424_a_at) / Fold change /veh CMKLR1 (11741424_a_at) / RFU LOC101060620 /// MAPK8IP1 (11723275_at) / Fold change /veh LOC101060620 /// MAPK8IP1 (11723275_at) / RFU SPTSSB (11747773_x_at) / Fold change /veh SPTSSB (11747773_x_at) / RFU PRSS12 (11739890_at) / Fold change /veh PRSS12 (11739890_at) / RFU BIN1 (11741810_x_at) / Fold change /veh BIN1 (11741810_x_at) / RFU WNT11 (11732464_a_at) / Fold change /veh WNT11 (11732464_a_at) / RFU C10orf10 (11716521_a_at) / Fold change /veh C10orf10 (11716521_a_at) / RFU C5orf56 (11738089_at) / Fold change /veh C5orf56 (11738089_at) / RFU CYB561 (11721691_x_at) / Fold change /veh CYB561 (11721691_x_at) / RFU ANKRD19P (11752326_a_at) / Fold change /veh ANKRD19P (11752326_a_at) / RFU OR2T12 /// OR2T33 /// OR2T8 (11738714_s_at) / Fold change /veh OR2T12 /// OR2T33 /// OR2T8 (11738714_s_at) / RFU VCAN (11748164_a_at) / Fold change /veh VCAN (11748164_a_at) / RFU JSRP1 (11732532_at) / Fold change /veh JSRP1 (11732532_at) / RFU KRTAP10-11 (11738290_x_at) / Fold change /veh KRTAP10-11 (11738290_x_at) / RFU MYO3A (11730013_a_at) / Fold change /veh MYO3A (11730013_a_at) / RFU EBF3 (11725865_a_at) / Fold change /veh EBF3 (11725865_a_at) / RFU CAMK2N1 (11719241_x_at) / Fold change /veh CAMK2N1 (11719241_x_at) / RFU C5orf56 (11738088_a_at) / Fold change /veh C5orf56 (11738088_a_at) / RFU OLFML3 (11715873_a_at) / Fold change /veh OLFML3 (11715873_a_at) / RFU LOC100653217 /// NTM (11731650_a_at) / Fold change /veh LOC100653217 /// NTM (11731650_a_at) / RFU MAPK11 (11762145_a_at) / Fold change /veh MAPK11 (11762145_a_at) / RFU FIZ1 (11724087_x_at) / Fold change /veh FIZ1 (11724087_x_at) / RFU OASL (11726364_x_at) / Fold change /veh OASL (11726364_x_at) / RFU SOX15 (11748057_x_at) / Fold change /veh SOX15 (11748057_x_at) / RFU CD79A (11719716_a_at) / Fold change /veh CD79A (11719716_a_at) / RFU HIST1H1D (11736915_at) / Fold change /veh HIST1H1D (11736915_at) / RFU CASKIN2 (11723855_a_at) / Fold change /veh CASKIN2 (11723855_a_at) / RFU LOC730098 (11760151_x_at) / Fold change /veh LOC730098 (11760151_x_at) / RFU OR4N2 (11742367_at) / Fold change /veh OR4N2 (11742367_at) / RFU PRRT2 (11749266_a_at) / Fold change /veh PRRT2 (11749266_a_at) / RFU SNX32 (11753110_a_at) / Fold change /veh SNX32 (11753110_a_at) / RFU CDHR5 (11726645_a_at) / Fold change /veh CDHR5 (11726645_a_at) / RFU RCAN1 (11760418_a_at) / Fold change /veh RCAN1 (11760418_a_at) / RFU FAM167A (11723789_a_at) / Fold change /veh FAM167A (11723789_a_at) / RFU FAM26E (11764081_at) / Fold change /veh FAM26E (11764081_at) / RFU ISYNA1 (11749810_s_at) / Fold change /veh ISYNA1 (11749810_s_at) / RFU ACY1 (11761880_at) / Fold change /veh ACY1 (11761880_at) / RFU 11764098_at / Fold change /veh 11764098_at / RFU SAMD14 (11745864_x_at) / Fold change /veh SAMD14 (11745864_x_at) / RFU NPB (11741838_a_at) / Fold change /veh NPB (11741838_a_at) / RFU TMPRSS6 (11731388_a_at) / Fold change /veh TMPRSS6 (11731388_a_at) / RFU KRTAP10-2 (11738614_at) / Fold change /veh KRTAP10-2 (11738614_at) / RFU ARHGAP8 /// PRR5-ARHGAP8 (11727945_x_at) / Fold change /veh ARHGAP8 /// PRR5-ARHGAP8 (11727945_x_at) / RFU KRTAP5-7 /// NADSYN1 (11734609_at) / Fold change /veh KRTAP5-7 /// NADSYN1 (11734609_at) / RFU RASL12 (11751679_a_at) / Fold change /veh RASL12 (11751679_a_at) / RFU CDKN2B (11736163_a_at) / Fold change /veh CDKN2B (11736163_a_at) / RFU PRF1 (11729649_at) / Fold change /veh PRF1 (11729649_at) / RFU, ZNF638 /// ZNF638-IT1 / Fold change vs veh, ZNF638 /// ZNF638-IT1 / RFU, PANK3 / Fold change vs veh, PANK3 / RFU, SH3YL1 / Fold change vs veh, SH3YL1 / RFU, ZEB2 / Fold change vs veh, ZEB2 / RFU, NRIP1 / Fold change vs veh, NRIP1 / RFU, PTTG1IP / Fold change vs veh, PTTG1IP / RFU, CAPN2 / Fold change vs veh, CAPN2 / RFU, MED14 / Fold change vs veh, MED14 / RFU, SNORA58 / Fold change vs veh, SNORA58 / RFU, C1orf63 / Fold change vs veh, C1orf63 / RFU, LRRFIP1 / Fold change vs veh, LRRFIP1 / RFU, NDUFAF7 / Fold change vs veh, NDUFAF7 / RFU, SLC12A2 / Fold change vs veh, SLC12A2 / RFU, IBTK / Fold change vs veh, IBTK / RFU, ESF1 / Fold change vs veh, ESF1 / Fold change vs veh, TMEM50B / RFU, TAOK1 / Fold change vs veh, TAOK1 / RFU, ACBD3 / Fold change vs veh, ACBD3 / RFU, TMA16 / Fold change vs veh, TMA16 / RFU, RWDD3 / Fold change vs veh, RWDD3 / RFU, BCAT1 / Fold change vs veh, BCAT1 / RFU, EDEM3 / Fold change vs veh, EDEM3 / RFU, TMEM33 / Fold change vs veh, TMEM33 / RFU, WDR75 / Fold change vs veh, WDR75 / RFU, AHCTF1 / Fold change vs veh, AHCTF1 / RFU, TFRC / Fold change vs veh, TFRC / RFU, ZDHHC17 / Fold change vs veh, ZDHHC17 / RFU, NOM1 / Fold change vs veh, NOM1 / RFU, ARL8B / Fold change vs veh, ARL8B / RFU, ZBTB11 / Fold change vs veh, ZBTB11 / RFU, TAMM41 / Fold change vs veh, TAMM41 / RFU, KIAA1704 /// LOC100996395 / Fold change vs veh, KIAA1704 /// LOC100996395 / RFU, ING1 / Fold change vs veh, ING1 / RFU, TRMT61B / Fold change vs veh, TRMT61B / RFU, FUBP3 / Fold change vs veh, FUBP3 / RFU, TP53 / Fold change vs veh, TP53 / RFU, TNKS2 / Fold change vs veh, TNKS2 / RFU, ZFP14 / Fold change vs veh, ZFP14 / RFU, ACTR2 / Fold change vs veh, ACTR2 / RFU, PPP3R1 / Fold change vs veh, PPP3R1 / RFU, PIK3R1 / Fold change vs veh, PIK3R1 / RFU, HNRNPA1 / Fold change vs veh, HNRNPA1 / RFU, RNF170 / Fold change vs veh, RNF170 / RFU, ZNF28 / Fold change vs veh, ZNF28 / RFU, RNGTT / Fold change vs veh, RNGTT / RFU, OGT / Fold change vs veh, OGT / RFU, BRD1 / Fold change vs veh, BRD1 / RFU, MARS / Fold change vs veh, MARS / RFU, ZNF655 / Fold change vs veh, ZNF655 / RFU, FAHD1 / Fold change vs veh, FAHD1 / RFU, BDP1 / Fold change vs veh, BDP1 / RFU, LRRCC1 / Fold change vs veh, LRRCC1 / RFU, ARID1A / Fold change vs veh, ARID1A / RFU, ZNF146 / Fold change vs veh, ZNF146 / RFU, ZNF330 / Fold change vs veh, ZNF330 / RFU, GPN3 / Fold change vs veh, GPN3 / RFU, C9orf123 / Fold change vs veh, C9orf123 / RFU, N4BP2L2 / Fold change vs veh, N4BP2L2 / RFU, ARFIP1 / Fold change vs veh, ARFIP1 / RFU, FAM179B / Fold change vs veh, FAM179B / RFU, BCL10 / Fold change vs veh, BCL10 / RFU, UHRF1BP1L / Fold change vs veh, UHRF1BP1L / RFU, BET1 / Fold change vs veh, BET1 / RFU, CNOT2 / Fold change vs veh, CNOT2 / RFU, ZNF268 / Fold change vs veh, ZNF268 / Fold change vs veh, ZNF507 / RFU, DGCR2 / Fold change vs veh, DGCR2 / RFU, WDSUB1 / Fold change vs veh, WDSUB1 / Fold change vs veh, HSP90B1 /// MIR3652 / RFU, ADSS / Fold change vs veh, ADSS / RFU, GK / Fold change vs veh, GK / RFU, ZNF148 / Fold change vs veh, ZNF148 / RFU, TAF9 / Fold change vs veh, TAF9 / RFU, SLC1A5 / Fold change vs veh, SLC1A5 / RFU, SLMO2 / Fold change vs veh, SLMO2 / RFU, ABCC4 / Fold change vs veh, ABCC4 / RFU, LOC101060439 /// RAP1B / Fold change vs veh, LOC101060439 /// RAP1B / RFU, RFX7 / Fold change vs veh, RFX7 / RFU, GTPBP10 / Fold change vs veh, GTPBP10 / RFU, CNEP1R1 / Fold change vs veh, CNEP1R1 / RFU, BIVM-ERCC5 /// ERCC5 / Fold change vs veh, BIVM-ERCC5 /// ERCC5 / RFU, ILF3 / Fold change vs veh, ILF3 / RFU 11762660_at / Fold change /veh 11762660_at / RFU VCAN (11757783_s_at) / Fold change /veh VCAN (11757783_s_at) / RFU DDX43 (11728927_at) / Fold change /veh DDX43 (11728927_at) / RFU KRT8 (11758188_x_at) / Fold change /veh KRT8 (11758188_x_at) / RFU NKD1 (11759106_at) / Fold change /veh NKD1 (11759106_at) / RFU SRD5A1 (11742802_a_at) / Fold change /veh SRD5A1 (11742802_a_at) / RFU TPSAB1 /// TPSB2 (11721975_s_at) / Fold change /veh TPSAB1 /// TPSB2 (11721975_s_at) / RFU GSTM3 (11746129_a_at) / Fold change /veh GSTM3 (11746129_a_at) / RFU IL23R (11737362_x_at) / Fold change /veh IL23R (11737362_x_at) / RFU TMEM51 (11727254_a_at) / Fold change /veh TMEM51 (11727254_a_at) / RFU PIWIL2 (11732686_x_at) / Fold change /veh PIWIL2 (11732686_x_at) / RFU ORM1 (11744905_x_at) / Fold change /veh ORM1 (11744905_x_at) / RFU CCDC152 (11743942_at) / Fold change /veh CCDC152 (11743942_at) / RFU ECM1 (11717891_a_at) / Fold change /veh ECM1 (11717891_a_at) / RFU IL23R (11748794_a_at) / Fold change /veh IL23R (11748794_a_at) / RFU TNFAIP8L3 (11732012_x_at) / Fold change /veh TNFAIP8L3 (11732012_x_at) / RFU MBOAT4 (11741988_at) / Fold change /veh MBOAT4 (11741988_at) / RFU 11764193_at / Fold change /veh 11764193_at / RFU TMEM53 (11763286_at) / Fold change /veh TMEM53 (11763286_at) / RFU MAGEB2 (11727129_at) / Fold change /veh MAGEB2 (11727129_at) / RFU TMEM200A (11744735_a_at) / Fold change /veh TMEM200A (11744735_a_at) / RFU CCDC152 (11751479_a_at) / Fold change /veh CCDC152 (11751479_a_at) / RFU FAM211A (11726209_a_at) / Fold change /veh FAM211A (11726209_a_at) / RFU RGS16 (11746705_a_at) / Fold change /veh RGS16 (11746705_a_at) / RFU VCAN (11755009_s_at) / Fold change /veh VCAN (11755009_s_at) / RFU RHOB (11743442_s_at) / Fold change /veh RHOB (11743442_s_at) / RFU RGS16 (11720943_a_at) / Fold change /veh RGS16 (11720943_a_at) / RFU RGS16 (11720944_at) / Fold change /veh RGS16 (11720944_at) / RFU, VPS4B / Fold change vs veh, VPS4B / RFU, CREB1 / Fold change vs veh, CREB1 / RFU, DNAJC13 / Fold change vs veh, DNAJC13 / RFU, GNAQ / Fold change vs veh, GNAQ / RFU, CDK5R1 / Fold change vs veh, CDK5R1 / RFU, ZRANB3 / Fold change vs veh, ZRANB3 / RFU, CUL4A / Fold change vs veh, CUL4A / RFU, CCNY / Fold change vs veh, CCNY / RFU, UFL1 / Fold change vs veh, UFL1 / RFU, COG3 / Fold change vs veh, COG3 / RFU, DIAPH2 / Fold change vs veh, DIAPH2 / RFU, SKA2 / Fold change vs veh, SKA2 / RFU, AFF3 / Fold change vs veh, AFF3 / RFU, LMF1 / Fold change vs veh, LMF1 / RFU, IPO11 / Fold change vs veh, IPO11 / RFU, DFFB / Fold change vs veh, DFFB / RFU, FOXP1 / Fold change vs veh, FOXP1 / RFU, CARD8 / Fold change vs veh, CARD8 / RFU, STRN3 / Fold change vs veh, STRN3 / RFU, ADK / Fold change vs veh, ADK / RFU, RASSF2 / Fold change vs veh, RASSF2 / RFU, WIPF1 / Fold change vs veh, WIPF1 / RFU, LARP1B / Fold change vs veh, LARP1B / RFU, RASA1 / Fold change vs veh, RASA1 / RFU, RB1 / Fold change vs veh, RB1 / RFU, PPFIA1 / Fold change vs veh, PPFIA1 / RFU, MAT2A / Fold change vs veh, MAT2A / RFU, CCT5 / Fold change vs veh, CCT5 / RFU, WDR92 / Fold change vs veh, WDR92 / RFU, CUX1 / Fold change vs veh, CUX1 / RFU, TTC7A / Fold change vs veh, TTC7A / RFU, TMEM135 / Fold change vs veh, TMEM135 / RFU, DEPTOR / Fold change vs veh, DEPTOR / RFU, CPM / Fold change vs veh, CPM / RFU, DNAJB6 / Fold change vs veh, DNAJB6 / RFU, CACNA2D3 / Fold change vs veh, CACNA2D3 / RFU, DTX4 / Fold change vs veh, DTX4 / RFU, TFCP2 / Fold change vs veh, TFCP2 / RFU, GMCL1 /// GMCL1P1 / Fold change vs veh, GMCL1 /// GMCL1P1 / RFU, AEBP2 / Fold change vs veh, AEBP2 / RFU, SNHG1 /// SNORD22 /// SNORD25 /// SNORD26 /// SNORD27 /// SNORD28 /// SNORD29 /// SNORD31 / Fold change vs veh, SNHG1 /// SNORD22 /// SNORD25 /// SNORD26 /// SNORD27 /// SNORD28 /// SNORD29 /// SNORD31 / Fold change (Aza/veh), C12orf56 (ProbeSet 11735607_a_at) / Fold change (ACY-1035/veh), C12orf56 (ProbeSet 11735607_a_at) / Fold change (Aza/veh), FGFR1OP (ProbeSet 11751329_s_at) / Fold change (ACY-1035/veh), FGFR1OP (ProbeSet 11751329_s_at) / Fold change (Aza/veh), VPS36 (ProbeSet 11739960_a_at) / Fold change (ACY-1035/veh), VPS36 (ProbeSet 11739960_a_at) / RFU SYPL1 (11715823_x_at) / Fold change /veh SYPL1 (11715823_x_at) / RFU IGFBP7 (11715501_s_at) / Fold change /veh IGFBP7 (11715501_s_at) / RFU REEP3 (11722064_at) / Fold change /veh REEP3 (11722064_at) / RFU IGLL1 (11728026_x_at) / Fold change /veh IGLL1 (11728026_x_at): dose or concentration left out as unconfirmed
Settings: ProbeSet 11753623_s_at; LIST D

SMILES: Nc1ccc(-c2cccs2)cc1NC(=O)c1ccc2c(c1)cc(C1CC1)n2CCN1CCOCC1 [ACY-1035]
- RFU, LOC101060439 /// RAP1B: 312.98 RFU
